Source: PMC2942994 (Biochemical pharmacology, 2010)

Columns and labels:
[1] = molecular target: hSERT V367I (Homo sapiens, UniProt P31645, V367I); assay: cell-based; set-up: species or system HEK-293, transiently transfected
[2] = molecular target: hSERT (human serotonin transporter) (Homo sapiens, UniProt P31645, M370L); assay: cell-based; set-up: species or system HEK-293, transiently transfected
Sequence of hSERT (human serotonin transporter) (P31645 whole entry M370L): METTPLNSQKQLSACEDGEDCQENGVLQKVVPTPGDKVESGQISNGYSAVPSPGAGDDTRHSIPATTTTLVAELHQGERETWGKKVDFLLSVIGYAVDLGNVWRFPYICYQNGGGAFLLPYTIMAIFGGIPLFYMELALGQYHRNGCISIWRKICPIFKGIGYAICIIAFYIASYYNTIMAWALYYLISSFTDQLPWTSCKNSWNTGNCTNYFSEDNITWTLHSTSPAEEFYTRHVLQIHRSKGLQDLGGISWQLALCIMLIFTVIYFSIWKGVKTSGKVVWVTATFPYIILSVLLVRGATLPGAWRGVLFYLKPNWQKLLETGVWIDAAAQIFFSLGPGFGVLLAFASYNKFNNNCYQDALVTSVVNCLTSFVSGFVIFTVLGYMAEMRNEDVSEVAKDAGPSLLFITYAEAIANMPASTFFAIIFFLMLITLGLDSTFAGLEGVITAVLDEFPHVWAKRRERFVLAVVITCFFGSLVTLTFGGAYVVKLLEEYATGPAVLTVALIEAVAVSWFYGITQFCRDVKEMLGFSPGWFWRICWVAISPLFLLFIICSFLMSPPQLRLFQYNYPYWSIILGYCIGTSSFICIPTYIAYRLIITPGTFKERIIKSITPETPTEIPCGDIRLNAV

Sequence of hSERT V367I (P31645 whole entry V367I): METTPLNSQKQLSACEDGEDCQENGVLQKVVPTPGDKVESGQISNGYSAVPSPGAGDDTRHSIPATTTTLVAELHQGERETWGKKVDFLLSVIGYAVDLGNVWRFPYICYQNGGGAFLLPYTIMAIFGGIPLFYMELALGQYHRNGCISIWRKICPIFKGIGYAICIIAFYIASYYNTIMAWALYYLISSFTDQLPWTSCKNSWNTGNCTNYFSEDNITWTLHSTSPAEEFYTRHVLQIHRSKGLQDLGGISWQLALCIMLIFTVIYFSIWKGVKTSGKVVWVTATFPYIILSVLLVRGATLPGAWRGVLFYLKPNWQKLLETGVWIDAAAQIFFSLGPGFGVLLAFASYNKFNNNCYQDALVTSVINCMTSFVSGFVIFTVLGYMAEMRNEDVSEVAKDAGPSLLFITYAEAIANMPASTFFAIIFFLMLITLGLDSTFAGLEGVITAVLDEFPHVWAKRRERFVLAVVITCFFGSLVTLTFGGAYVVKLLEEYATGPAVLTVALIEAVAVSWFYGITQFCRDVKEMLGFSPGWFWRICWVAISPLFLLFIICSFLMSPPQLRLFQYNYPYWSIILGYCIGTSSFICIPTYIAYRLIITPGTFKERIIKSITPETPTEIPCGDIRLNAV

COC(=O)[C@H]1[C@@H](c2ccc(I)cc2)C[C@@H]2CC[C@H]1N2C [RTI-55]
Ki [1]: 16 ± 6 nM
Ki [2]: 16 ± 2 nM
